Test results reported in paper PMC9538944, “In vitro biotransformation assays using fish liver cells: Comparing rainbow trout and carp hepatocytes” (Frontiers in Toxicology, 2022).
Where “and” joins values, the source holds several entries; their conditions need not be identical. Identical values can stand only once. Like-named read-outs stand apart in the source and are kept apart here.

Assays:
[1] = In vivo bioconcentration test OECD TG 305, carp; design: species or system Cyprinus carpio; conditions: common carp (Cyprinus carpio); for concentration at 40 d: day 40 (depuration); for concentration at 44 d: day 44 (depuration)
Description: (§1) In vivo BCF values for MXC and BaP in carp and trout were determined in bioconcentration tests with both species in accordance to OECD TG 305 ([OECD, 2012]). The studies were approved by the State Agency for Nature, Environment and Consumer Protection (LANUV) North Rhine-Westphalia. The fish were exposed to a single concentration of both test items in a flow-through system for 35 days. No control groups were used. Dosing was performed by a solid-phase desorption system which was integrated in the fresh water supply allowing for a constant delivery of test concentrations to the fish chambers. The procedure of column generated concentrations was described in detail by [Schlechtriem et al. (2017)]. For the present study, two packed columns containing each 500 g Florisil® loaded with 200 mg of either MXC or BaP were used for each fish chamber. The uptake (exposure) phase of the study was followed by a 35 days depuration phase in uncontaminated water. The flow-through rate was maintained at 38.6 L/h for carp and 30.1 L/h for trout throughout the test. […] Additional 2-4 fish were sampled each, at the start and at the end of the exposure period, as well as at the end of the depuration period for lipid analysis. The total lipid content of the fish was measured individually by gravimetric analysis according to [Smedes (1999)].
(§2) Water samples (400 ml) were taken from the test chambers at least three times per week. Preparation for chemical analysis was performed by liquid-liquid extraction using n-hexane (10 ml) containing deuterated MXC (35 ng). The purified organic phase was subdivided into two equal parts and evaporated to dryness under a stream of nitrogen. One part of the residue was dissolved in 200 µL DCM for MXC analysis. The other part was mixed with 1 ml ACN: water (8:2, v/v) and subjected to BaP analysis. Whole fish samples were prepared for chemical analysis individually. After grinding the tissue with the addition of dry ice in a Thermomix™ 31 (Vorwerk), the finely powdered homogenate was lyophilized using an AdVantage freeze dryer (Ismatec). Aliquots of the dry samples (0.5 g) were spiked with deuterated internal standards (5 ng MXC-d6 and 0.2 ng BaP-d12) and extracted three times with acetone: DCM (1:1, v/v) (10 ml). The pooled extracts were then extracted with ultra-pure water (45 ml) and mixed with sodium chloride (5 g) to remove acetone and matrix. The organic phase was concentrated (0.5 ml) and dissolved in cyclohexane: DCM (1:1, v/v) (4.2 ml). This was subjected to gel permeation chromatography (GPC) (GILSON system equipped with pump 307, syringe pump 402, GX-271 liquid handler, 508 interface module, and Trilution® LC software; column i. d. 1.5 cm, material Bio-Beads S-X3, 200–400 mesh, Bio-Rad, flow rate 2 ml/min). Eluates containing MXC (26–31 min retention time) and BaP (32–38 min retention time) were evaporated to dryness and dissolved in hexane (1 ml) and toluol (50 µL), respectively. The collected MXC extracts were further concentrated by solid-phase extraction (SPE, Sep-Pak® Vac 12cc, 2 g, silica cartridges, Waters) using DCM: n-hexane (50:50, v/v) as eluent. Eluent and hexane were used to equilibrate and condition the column before sample loading and subsequent washing with DCM: n-hexane (30:70, v/v). The eluate containing MXC was dried down and reconstituted in toluol (0.5 ml).
(§3) MXC in the organic phase of samples from the in vitro incubations and in DCM extracts of water samples from the in vivo bioconcentration tests were analyzed by gas chromatography-mass spectrometry (GC-MS). The GC-MS system consisted of a HP5890 series II GC coupled to a HP5972 mass sensitive detector (Hewlett-Packard). Separations were performed on 5% phenyl polysilphenylene-siloxane capillary columns (BPX-5, 30 m length x 0.25 mm i. d, 0.25 µm df, SGE). […]

common carp = experiment: In vivo bioconcentration test OECD TG 305, carp; design: species or system Cyprinus carpio; conditions: for Cf data, concentration measured in individual fish: BaP background corrected
Description: as §1, §2, §3

[2] = in vivo, Cf data, concentration measured in individual fish
[3] = in vivo, common carp, day 7 (uptake), read-out: Mean Cf
[4] = in vivo, common carp, day 14 (uptake), read-out: Mean Cf
[5] = in vivo, common carp, day 21 (uptake), read-out: Mean Cf
[6] = in vivo, common carp, day 28 (uptake), read-out: Mean Cf
[7] = in vivo, common carp, day 35 (end of uptake), read-out: Mean Cf
[8] = in vivo, common carp, read-out: Mean Cf
[9] = common carp (Cyprinus carpio), in vivo
[10] = in vivo, common carp, BaP background corrected, read-out: Cf data, concentration measured in individual fish

c1ccc2c(c1)cc1ccc3cccc4ccc2c1c34 [BaP, benzo[a]pyrene]
concentration at 7 d [1, 2]: 0.204 ng/g
concentration at 14 d [1, 2]: 0.168 ng/g
concentration at 21 d [1, 2]: 0.136 ng/g
concentration at 28 d [1, 2]: 0.13 ng/g
concentration at 35 d [1, 2]: 0.149 ng/g
concentration at 7 d [1, 3]: 0.216 ng/g
concentration at 14 d [1, 4]: 0.172 ng/g
concentration at 21 d [1, 5]: 0.154 ng/g
concentration at 28 d [1, 6]: 0.148 ng/g
concentration at 35 d [1, 7]: 0.153 ng/g
concentration at 40 d [1, 8]: 0.013 ng/g
concentration at 44 d [1, 8]: 0.002 ng/g
concentration at 14 d ([1]; whole fish, other: exposure via water in a flow-through system, common carp, day 14 (uptake), BaP background corrected, read-out: Cf data, concentration measured in individual fish): 0.141 ng/g
Cf,SS concentration in fish at steady-state (common carp; [9]): 0.157 µg/kg
kB, in vivo estimate Carp (common carp; [9]): 0.48 day⁻¹
kB, in vivo estimate, range of 95% probability (common carp; [9]): 0.16–1.4
kT depuration rate constant (common carp; [9]): 0.493 day⁻¹
kTG growth corrected depuration rate constant (common carp; [9]): 0.482 day⁻¹
BCFSSL lipid-normalized steady-state bioconcentration factor (common carp; common carp (Cyprinus carpio), in vivo, 35 d): 73 L/kg

COc1ccc(C(c2ccc(OC)cc2)C(Cl)(Cl)Cl)cc1 [MXC, methoxychlor]
concentration at 7 d ([1]; in vivo, common carp, day 7 (uptake), BaP background corrected, read-out: Cf data, concentration measured in individual fish): 12.8 ng/g
concentration at 7 d [1, 3]: 12.2 ng/g
concentration at 14 d ([1]; in vivo, common carp, day 14 (uptake), BaP background corrected, read-out: Cf data, concentration measured in individual fish): 11.4 ng/g
concentration at 14 d [1, 4]: 9.88 ng/g
concentration at 21 d ([1]; in vivo, common carp, day 21 (uptake), BaP background corrected, read-out: Cf data, concentration measured in individual fish): 9.16 ng/g
concentration at 21 d [1, 5]: 8.56 ng/g
concentration at 28 d ([1]; in vivo, common carp, day 28 (uptake), BaP background corrected, read-out: Cf data, concentration measured in individual fish): 7.02 ng/g
concentration at 28 d [1, 6]: 6.94 ng/g
concentration at 35 d ([1]; in vivo, common carp, day 35 (end of uptake), BaP background corrected, read-out: Cf data, concentration measured in individual fish): 8.35 ng/g
concentration at 35 d [1, 7]: 7.59 ng/g
concentration at 40 d [1, 10]: 3.02 ng/g
concentration at 40 d [1, 8]: 2.4 ng/g
concentration at 44 d [1, 10]: 0.819 ng/g
concentration at 44 d [1, 8]: 0.757 ng/g
Cf,SS concentration in fish at steady-state (common carp; common carp): 8.24 µg/kg
kT depuration rate constant (common carp; common carp): 0.255 day⁻¹
kTG growth corrected depuration rate constant (common carp; common carp): 0.244 day⁻¹
BCFSSL lipid-normalized steady-state bioconcentration factor (common carp; common carp, 5% lipid content): 621 L/kg
Cf data, concentration measured in individual fish (common carp; common carp, day 7 (uptake)): 11.7 µg/kg and 10.7 µg/kg and 13.8 µg/kg
Cf data, concentration measured in individual fish (common carp; common carp, day 14 (uptake)): 9.30 µg/kg and 10.0 µg/kg and 8.83 µg/kg
Cf data, concentration measured in individual fish (common carp; common carp, day 21 (uptake)): 9.96 µg/kg and 6.95 µg/kg and 8.16 µg/kg
Cf data, concentration measured in individual fish (common carp; common carp, day 28 (uptake)): 5.90 µg/kg and 7.85 µg/kg and 7.00 µg/kg
Cf data, concentration measured in individual fish (common carp; common carp, day 35 (end of uptake)): 7.32 µg/kg and 7.30 µg/kg and 7.40 µg/kg
Cf data, concentration measured in individual fish (common carp; common carp, day 40 (depuration)): 2.71 µg/kg and 1.73 µg/kg and 2.16 µg/kg
Cf data, concentration measured in individual fish (common carp; common carp, day 44 (depuration)): 0.719 µg/kg and 0.956 µg/kg and 0.535 µg/kg
